Data published in article PMC11368658 (Molecular oral microbiology, 2024).

Legend:
TDE1909 (CdaA) = TDE1909 (CdaA) (Treponema denticola, UniProt Q73LF5); type: biochemical; conditions: 150 µM ATP, 5 µM enzyme, 10 mM MnCl2, pH 7.5, 37 °C, 1-4 hr
TDE0087 (TrkA) = target: T1, TDE0087 (TrkA) (Treponema denticola, UniProt Q73RK1); experiment: ELISA-type plate binding, immobilised protein, streptavidin-HRP; conditions: labelled compound (biotinylated c-di-AMP, 125 nM); 50 mM Tris-HCl pH 8.0, 750 mM KCl, 2.5 mM EDTA, 2 hr
T1 sequence (Q73RK1 1-466): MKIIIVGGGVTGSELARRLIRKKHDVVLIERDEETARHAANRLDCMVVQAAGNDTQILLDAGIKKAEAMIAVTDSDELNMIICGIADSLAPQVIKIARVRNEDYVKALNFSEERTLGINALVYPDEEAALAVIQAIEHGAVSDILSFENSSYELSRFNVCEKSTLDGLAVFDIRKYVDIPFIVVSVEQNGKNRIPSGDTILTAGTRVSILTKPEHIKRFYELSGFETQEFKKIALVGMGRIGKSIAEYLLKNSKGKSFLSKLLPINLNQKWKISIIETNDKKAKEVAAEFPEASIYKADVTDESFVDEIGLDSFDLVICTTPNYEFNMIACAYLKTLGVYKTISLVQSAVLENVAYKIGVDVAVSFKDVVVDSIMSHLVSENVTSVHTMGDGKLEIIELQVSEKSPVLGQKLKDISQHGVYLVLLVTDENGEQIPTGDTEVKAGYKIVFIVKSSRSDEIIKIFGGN

TDE0027 (DhhA) = TDE0027 (DhhA) (Treponema denticola, UniProt Q73RQ8); experiment: absorbance at […] nm; type: biochemical; conditions: MnCl2 buffer, 30 min

Compound | RP-HPLC of reaction products (TDE1909 (CdaA)) | ELISA-type plate binding, immobilised protein, streptavidin-HRP (TDE0087 (TrkA)) | absorbance at 405 nm (TDE0027 (DhhA))
Nc1ncnc2c1ncn2[C@@H]1O[C@@H]2COP(=O)(O)O[C@H]3[C@@H](O)[C@H](n4cnc5c(N)ncnc54)O[C@@H]3COP(=O)(O)O[C@H]2[C@H]1O [c-di-AMP] | we observed that CdaA converted ATP to c-di-AMP while CdaR did not | TDE0087 bound c-di-AMP similarly to the CabP control | –
Nc1ncnc2c1ncn2[C@@H]1O[C@H](COP(=O)(O)OP(=O)(O)OP(=O)(O)O)[C@@H](O)[C@H]1O [ATP] | we observed that CdaA converted ATP to c-di-AMP while CdaR did not | – | –
O=[N+]([O-])c1ccc(OP(=O)(O)Oc2ccc([N+](=O)[O-])cc2)cc1 [bis-pNPP] | – | – | TDE0027 hydrolyzed bis-pNPP but not pNPP
